A short description of series [1]: Octanol-water partition coefficients by ICP-MS. Type of series: physicochemical. The settings on record: 1:1 water:1-octanol, 48 hours, Gd by ICP-MS. How it is done: Octanol-water partition coefficients (log P) were measured by ICP-MS to determine the hydrophilicity of the Pz-Gd(III) conjugates (4d, 18). The hydrophilicity of a molecule dictates cellular permeability where a balance in amphiphilicity is desired for ease of aqueous administration and maximum cellular uptake (19). Cu-Pz-Gd(III) is slightly more hydrophobic than Zn-Pz-Gd(III) and both conjugates are more hydrophobic than DOTA-Gd(III).
DOTA-Gd(I I I), Zn-Pz-Gd(III), and Cu-Pz-Gd(III) (0.5 mg) were dissolved in 1 mL of a 1:1 mixture of water:1-octanol, respectively. After shaking for 30 seconds, these tubes were placed on a rotator for gentle mixing to equilibrate for 48 hours. Gd(III) concentration in each layer was determined by ICP-MS. Partition coefficients were calculated from the equation log P=log(Co/Cw), where log P is the logarithm of the partition coefficient, Co is the concentration of Gd in the 1-octanol layer, and Cw is the concentration of Gd in the water layer.

A further series concerns MDA-MB-231 cells. The experiment in a line: MR imaging of cell pellets at 9.4 T. The class given is cell-based. How it is done: To determine whether the cellular uptake and molecular relativity of Cu-Pz-Gd(III) provides an effective MR contrast agent, MDA-MB-231 breast tumor cells were treated with M-Pz-Gd(III) complexes (200 μM) and centrifuged into capillaries (about 1.0 mm diameter) prior to MR imaging. […] The amount of Gd(III) per cell was determined by ICP-MS for each pellet and, as expected, T1 is inversely proportional to Gd(III) content. (FIG. 2B).
9.4 T MR imaging and T1/T2 measurements were performed on a Bruker Biospec 9.4 T imaging spectrometer fitted with shielded gradient coils at 25° C. For cell pellets images, about 2.0×10^6 MDA-MB-231 cells were incubated in 25-cm^2 T-flasks with either Cu-Pz-Gd(III), Zn-Pz-Gd(III) or DOTA-Gd(III) (400 μM wrt Gd(III)) for 24 hours, rinsed with DPBS (3×5 mL/flask), and harvested with 500 μL, of a 0.25-vol % trypLE Express solution. […] The bottom sections of the flame-sealed pipets were then scored with a glass scribe, broken into small capillaries, then imaged using a RF RES 400 1H 089/038 quadrature transmit receive 23-mm volume coil (Bruker BioSpin, Billerica, Mass., USA).
Spin-lattice relaxation times (T1) were measured using a […] (RARE-VTR) T1-map pulse sequence, with static TE (10 ms) and variable TR (100, 200, 400, 500, 750, 1000, 2500, 5000, 7500, and 10000 ms) values. […]

Where “and” joins values, the source holds several entries; their conditions need not be identical. Equal entries are not always repeated.

The log P is the decadic logarithm of the partition coefficient of the neutral form, usually between octanol and water. In the case of “Cu[Pz(C19H28N8O7Gd)2]. Pz=18,21-bis(2-(1H-1,2,3-triazole-4-yl) ethoxy)-tris-[1,4-dioxino[g,l,q](2R,3R)-2,3-dimethoxy-2,3-dimethyll 25H,27H-benzo[b]porphyrazine; C19H28N8O7Gd=N-methyl-2-aminoacetamide-4,7,10-tris(carboxymethyl)-1,4,7,10-tetraazacyclododecylgadolinium(III)) [Cu-Pz-Gd(III)]”, in series [1], the “log P” value is recorded as −2.41. Also, the “MR image intensity of cell pellets” value with MDA-MB-231 cells (MDA-MB-231, 200 μM, vs Zn-Pz-Gd(III), DOTA-Gd(III) or vehicle) is “significant increases in image intensity”. The “contrast to noise ratio (CNR)” value in the series with MDA-MB-231 cells (MDA-MB-231 cell pellets, 200 μM complex (400 μM wrt Gd(III)), 24 hours, 9.4 T, 25° C.) is 9.336±0.335 and 9.336.

(Values after patent US20160031909A1, “PORPHYRAZINE OPTICAL AND DUAL OPTICAL/ MR CONTRAST AND THERAPEUTIC AGENTS” (HOFFMAN/BARRETT, LLC, priority 2013, published 2016).)
